From patent US20220409619A1, “INHIBITORS OF HUMAN IMMUNODEFICIENCY VIRUS REPLICATION” (VIIV HEALTHCARE UK (No. 5) LIMITED, priority 2019, published 2022)

Legend:
uninfected MT2 cells = experiment: Compound cytotoxicity, XTT-based colorimetric assay; assay type: cell-based; conditions: day 4, XTT-based colorimetric assay
Outline: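 Run under the antiviral-assay protocol but without virus. Viability was read on day 4 and CC50 values were derived from the readout.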

[1] = tested on: recombinant NL4-3 virus (nef section replaced with Renilla luciferase gene) in MT-2 cells; experiment: HIV cell culture assay (antiviral activity, luciferase readout); assay type: cell-based; conditions: MT-2 cells infected for 4-5 days with recombinant NL4-3 Renilla luciferase virus; luciferase activity; read-out: EC50
Outline: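 MT-2 cells were infected for 4-5 days with 293T-derived NL4-3 Renilla-luciferase reporter virus in the presence of serial compound dilutions. Luciferase was read with EnduRen live-cell substrate. EC50 was fitted with the median effect equation.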

Cn1nc(NS(C)(=O)=O)c2c(Cl)ccc(-n3c([C@H](Cc4cc(F)cc(F)c4)NC(=O)Cn4nc(C(F)F)c5c4C(F)(F)[C@@H]4C[C@H]54)nc(-c4ccc(F)cc4F)cc3=O)c21 [Example 3, N-((S)-1-((1P)-1-(4-chloro-1-methyl-3-(methylsulfonamido)-1H-indazol-7-yl)-4-(2,4-difluorophenyl)-6-oxo-1,6-dihydropyrimidin-2-yl)-2-(3,5-difluorophenyl)ethyl)-2-((3bS,4aR)-3-(difluoromethyl)-5,5-difluoro-3b,4,4a,5-tetrahydro-1H-cyclopropa[3,4]cyclopenta[1,2-c]pyrazol-1-yl)acetamide]
CC50 (uninfected MT2 cells): > 100 nM | EC50 [1]: 1.7 nM
